US20220363680A1, “PROCESSES FOR THE SYNTHESIS OF VALBENAZINE” (Neurocrine Biosciences, Inc., priority 2019, published 2022)

How the values were obtained:
[1] = Particle size distribution of manufacturing batches of the compound of Formula I; assay type: physicochemical; conditions: crystalline Form I batches
Source text: Manufacturing batches of(2R,3R,11bR)-3-isobutyl-9,10-dimethoxy-2,3,4,6,7,11b-hexahydro-1H-pyrido[2,1-a]isoquinolin-2-yl (S)-2-amino-3-methylbutanoate di(4-methylbenzenesulfonate) (i.e., the compound of Formula I) have been prepared in a similar manner as described herein and have the following particle size distribution characterizations, as shown in Table 3.
Four separate batches of (2R,3R,11bR)-3-Isobutyl-9,10-dimethoxy-2,3,4,6,7,11b-hexahydro-1H-pyrido[2,1-a]isoquinolin-2-yl (S)-2-amino-3-methylbutanoate di(4-methylbenzenesulfonate) were manufactured in a similar manner as described herein (i.e., Example 1) in compliance with applicable cGMPs for GLP use. Certain data are shown below in Table 10 for Example 1, Step E (i.e., Batch 073) and the four batches (i.e., Batches 084, 085, 086, and 087).

[2] = Stability of standard and sample solutions (4 mg/mL) for the HPLC method; assay type: physicochemical; conditions: 4 mg/mL in DI water:acetonitrile 50:50 v/v, ambient laboratory conditions
Description: Diluent (DI Water:Acetonitrile, 50:50, v/v).
Note: Standard solutions are stable for 4 days at ambient laboratory conditions.
Working Standard Solution (4 mg/mL of compound of Formula I).
Note: Sample solutions are stable for 4 days at ambient laboratory conditions.
Sample Solution (4 mg/mL of compound of Formula I).

[3] = Table 3, listed as Batch 073, di(4-methylbenzenesulfonate)
[4] = Table 3, listed as Batch 084, di(4-methylbenzenesulfonate)
[5] = Table 3, listed as Batch 085, di(4-methylbenzenesulfonate)
[6] = Table 3, listed as Batch 086, di(4-methylbenzenesulfonate)
[7] = Table 3, listed as Batch 087, di(4-methylbenzenesulfonate)
[8] = Table 10, listed as Batch 073, di(4-methylbenzenesulfonate)
[9] = Table 10, listed as Batch 084, di(4-methylbenzenesulfonate)
[10] = Table 10, listed as Batch 085, di(4-methylbenzenesulfonate)
[11] = Table 10, listed as Batch 086, di(4-methylbenzenesulfonate)
[12] = Table 10, listed as Batch 087, di(4-methylbenzenesulfonate)

SMILES: COc1cc2c(cc1OC)[C@H]1C[C@@H](OC(=O)[C@@H](N)C(C)C)[C@H](CC(C)C)CN1CC2 [Compound of Formula I, (2R,3R,11bR)-3-isobutyl-9,10-dimethoxy-2,3,4,6,7,11b-hexahydro-1H-pyrido[2,1-a]isoquinolin-2-yl (S)-2-amino-3-methylbutanoate di(4-methylbenzenesulfonate)]
- Particle size distribution, D10 ([1]; Table 3): 3 µm
- Particle size distribution, D50 [1, 3]: 14 µm
- Particle size distribution, D90 [1, 3]: 45 µm
- Particle size distribution, D50 [1, 4]: 13 µm
- Particle size distribution, D90 [1, 4]: 43 µm
- Particle size distribution, D50 [1, 5]: 13 µm
- Particle size distribution, D90 [1, 5]: 44 µm
- Particle size distribution, D50 [1, 6]: 14 µm
- Particle size distribution, D90 [1, 6]: 48 µm
- Particle size distribution, D50 [1, 7]: 13 µm
- Particle size distribution, D90 [1, 7]: 45 µm
- Particle size distribution, D10 ([1]; Table 10): 3 μm
- Particle size distribution, D50 [1, 8]: 14 μm
- Particle size distribution, D90 [1, 8]: 45 μm
- Particle size distribution, D50 [1, 9]: 13 μm
- Particle size distribution, D90 [1, 9]: 43 μm
- Particle size distribution, D50 [1, 10]: 13 μm
- Particle size distribution, D90 [1, 10]: 44 μm
- Particle size distribution, D50 [1, 11]: 14 μm
- Particle size distribution, D90 [1, 11]: 48 μm
- Particle size distribution, D50 [1, 12]: 13 μm
- Particle size distribution, D90 [1, 12]: 45 μm
- Time for which solutions are stable [2]: 4 days
